Source: patent US6881825B1, “Identication of peptides that facilitate uptake and cytoplasmic and/or nuclear transport of proteins, DNA and virues” (University of Pittsburgh of The Commonwealth System of …, priority 1999, dated 2005)

Assays:
rabbit synovial lining = experiment: In vivo transfer of peptide-conjugated β-gal after injection into rabbit knee; details: FIG. 4A; injection into rabbit knee; compared with adenoviral vector encoding β-gal
Method: Peptide-β-gal complexes (fusions) were injected into rabbit knee synovial lining, the lining as then removed, washed with wash buffer, fixed with 4% paraformaldehyde, and stained with β-gal.
(§1) Peptide 5 (SEQ ID NO:5) was able to facilitate uptake of β-gal in nearly 100% of the synovial cells in vivo (FIG. 4B).

Hig-82 cells [1] = experiment: Peptide competition assay for internalization of peptide-conjugated β-gal; format: cell-based, rabbit; details: for blocking of internalization of peptide-conjugated β-gal by non-biotinylated peptide: FIG. 5, conjugates of peptide 2, 3, 4 and 5, 3 hours at 37° C.
Method: A peptide competition assay was carried out to determine the relative efficiency and specificity of the various peptides. The peptides were conjugated to β-gal as described above in Example 4 and incubated with Hig-82 cells grown to 85% confluency in 24 well plates in the presence of non biotinylated peptides for 3 hours at 37° C. in TBS buffer while being gently rotated. The cells were then washed 10 times with TBS buffer, fixed with 4% paraformaldehyde at room temperature for 30 minutes, washed 3 times with TBS buffer, and stained with Xgal, as described above in Example 4, overnight. Cells which stained blue had internalized peptide-conjugated β-gal.

Hig-82 cells [2] = experiment: Peptide-β-gal complex internalization, X-gal staining; format: cell-based, rabbit; details: for transduction/transfer activity of the peptide (in words): as summarised with CD spectra and competition data
Method: (§2) Internalizing peptides 1-6 (SEQ ID Nos:1-6 respectively), which were identified as described above in Example 3, were synthesized, and biotinylated (synthesis and biotinylation performed by the Biotech Center of the University of Pittsburgh). The biotinylated peptides were then conjugated to avidin β-gal or avidin Cy3 at room temperature for 2 hours.
(§3) The peptide conjugates were then added to cells (Hig-82 cells, rabbit synovial cells, human synovial cells, rabbit synovial lining, human primary airway cells HBE 144, human primary islet cells, murine myoblast cells C2C12, dog kidney epithelial cells MDCK, murine fibroblast cells NIH3T3 and murine tumor cells MCA 205 (human synovial cells and human primary airway cells (HBE144) were isolated from patients from the Presbyterian Hospital, University of Pittsburgh by standard techniques for establishing a primary cell culture; human islet cells were provided by the University of Miami and were isolated by standard techniques for establishing a primary cell culture; C2C12, MDCK, 3T3 and MCA205 cells were purchased from ATTC, Bethesda, Md.; all cells were cultured in DMEM and grown to 100% confluency) and incubated while gently rotating at 37° C. for 3 hours with TBS buffer. The cells were then washed 10 times with TBS buffer and fixed with 4% paraformaldehyde at room temperature for 30 minutes. Cells were then washed 3 times with TBS buffer and stained with 1 mg/ml X-gal (Bochringer Mannheim, Indianapolis) at 37° C. overnight for β-gal-conjugated peptides. Cells which were blue indicated the presence of β-gal in the cells. For Cy3-conjugated peptides, fluorescence of the cells as measured by confocal microscopy indicated the ability of the peptide to internalize the Cy3 (a small molecule cargo).
TAT-PTD (YGRKKRRQRRR; SEQ ID NO:21), and a random control peptide (ARPILEHGSDKAT; SEQ ID NO:20). […] In FIG. 1B, various concentrations of peptides linked to β-gal were tested (1:1=150 nM of β-gal).

[3] = tested on: rabbit synovial fibroblasts; experiment: Internalization of Cy3-labeled peptide/M13 phage complex; format: cell-based; details: FIG. 13D vs control phage
Description: Therefore, the peptides of the present invention are useful for facilitating the internalization of virus and viral vectors.

rabbit synovial cells = experiment: Peptide-β-gal internalization, X-gal staining; format: cell-based; details: rabbit (primary) synovial cells; FIG. 2, 6B
Method: as §2, §3

MCA 205 tumor cells = experiment: Intra-tumoral injection of peptide-β-gal complex, X-gal staining of tumor; format: in vivo, mouse; details: day 14 subcutaneous MCA-205 tumors, single intra-tumoral injection
Method: as §1
To make the nucleic acid encoding the peptide-eGFP fusion depicted in FIG. 9A, PCR was employed using 5′ and 3′ primers that encoded the peptide and a his tag, respectively, and had complimentary sequences to eGFP DNA coding sequences. […] MCA 205 tumor cells (5×10^5 cells) were injected subcutaneously into the flank of a C57/BL6 mouse. At day 14, a single intra-tumoral injection of the peptide β-gal complex was performed. The mice were sacrificed 3 hours post-injection and the tumor tissue was isolated, sectioned and stained with X-gal.

human synovial cells = experiment: Peptide-β-gal internalization, X-gal staining; format: cell-based; details: human (primary) synovial cells; FIG. 3, 6C
Method: as §2, §3

| Sequence | level of uptake of β-gal into rabbit synovial lining (rabbit synovial lining) | transduction/transfer activity of the peptide (in words) (Hig-82 cells [2]) | internalization of intact M13 phage (and nuclear localization of protein complexes) [3] | also measured |
| --- | --- | --- | --- | --- |
| PIRRRKKLRRLK (random peptide library) [peptide 4] | highest level of uptake | highly active | able to facilitate internalization and nuclear localization of protein complexes as well as intact M13 phage | blocking of internalization of peptide-conjugated β-gal by non-biotinylated peptide (Hig-82 cells [1]): blocked the internalization of peptide 2 through peptide 6-conjugated β-gal |
| KRIHPRLTRSIR (random peptide library) [peptide 2] |  | intermediate activity | able to facilitate internalization and nuclear localization of protein complexes as well as intact M13 phage |  |
| ARPILEHGSDKAT (ARPLEHGSDKAT; random peptide library) [reference compound] | no uptake | does not have activity |  |  |
| PPRLRKRRQLNM (random peptide library) [peptide 3] |  | intermediate activity | able to facilitate internalization and nuclear localization of protein complexes as well as intact M13 phage | internalization of β-gal (rabbit synovial cells): facilitate the internalization of β-gal into rabbit synovial cells; β-gal staining / internalization in murine tumors in vivo (MCA 205 tumor cells): facilitate the internalization of β-gal into murine tumor cells in vivo; relative strength of internalization of β-gal (concentration needed) (Hig-82 cells [2]; FIG. 1B, various concentrations of peptide linked to β-gal, 1:1=150 nM of β-gal): achieved internalization of β-gal at a slightly higher concentration |
| MHKRPTTPSRKM (random peptide library) [peptide 6] |  | only weakly able to transduce cells |  | inhibition of uptake of peptide 2 and 3 (Hig-82 cells [1]; FIG. 12): able to inhibit; transduction/transfer activity of the peptide (in words) (Hig-82 cells [2]; listed as SEQ ID NO:6): lower activity |
| YGRKKRRQRRR (human) [TAT-PTD, reference compound] | highest level of uptake |  |  |  |
| RQIKIWFQNRRMKWKK (antennepedia) [antennapedia peptide, reference compound] |  |  |  | β-gal staining / internalization in murine tumors in vivo (MCA 205 tumor cells): facilitate the internalization of β-gal into murine tumor cells in vivo |
| KRIIQRILSRNS (random peptide library) [peptide 1] |  | lower activity |  | internalization of β-gal (human synovial cells): facilitate the internalization of β-gal into human synovial cells; internalization of β-gal (rabbit synovial cells): facilitate the internalization of β-gal into rabbit synovial cells; blocking of internalization of peptide-conjugated β-gal by non-biotinylated peptide (Hig-82 cells [1]): did not block the internalization by any of the peptides |
